Columns and labels:
[1] = system: human intestinal fibroblasts; assay: SA-β-gal staining of irradiated (3×2 Gy) fibroblasts pre-conditioned with IL-1RA low organoid medium; format: cell-based; conditions: IL-1RA low conditioned medium, anakinra 20 μg/mL, 72 h
From the text: (§1) (A and B) Quantification of IL-1 and IL-1RA baseline serum levels in non-pCR (n=25) and pCR (n=7) patients before CRT. Data are mean±SD. ** p<0.01 by t-test. (C) IL-1RA serum level association with two SNPs: rs4251961 (T/C) and rs579543 (A/G) using DNA isolated from patients (n=31) pre-CRT peripheral blood mononuclear cells. Data are mean±SD. ** p=0.0052 by t-test. (D) Kaplan-Meier DFS curve of patients with high (n=37) and low (n=37) IL-1RN expression score (median split) based on the RNA sequencing data of pre-CRT biopsies. * p<0.05 by Log-rank (Mantel-Cox) test. […] (H) Paired analysis of sirius red staining of non-pCR patients (n=11) pre versus post-CRT. Scale bars=300 μm. (I) Paired quantification of p21 immunohistochemistry staining of non-pCR patients (n=10) pre versus post CRT. (J) Correlation analysis of pre-CRT serum IL-1RA levels with ratio of p21 induction (post/pre-CRT p21 RNA expression level) (n=10 non pCR patients). * p<0.05 by Spearman r correlation test. […] (M) Nitrite concentration determined by Griess assay in supernatants from WT, IL-1RA high & IL-1RA low conditioned media treated human fibroblasts for 72 h (n=13 independent wells per group). […] (N) Nitrite concentration determined by Griess assay in supernatants from untreated and IL-1α (1 μg/mL) stimulated human fibroblasts for 72 h (n=32 independent wells per group representing 3 independent experiments). […]

[2] = system: human fibroblasts; assay: Nitrite concentration by Griess assay in human fibroblast supernatants; format: cell-based; conditions: IL-1α 1 μg/mL only, 72 h
From the text: as §1

| Substance | senescence induction upon irradiation (SA-β-gal staining) [1] | nitrite production by fibroblasts [2] |
| --- | --- | --- |
| anakinra: Kineret®, an interleukin-1 receptor antagonist | could be blocked by anakinra | – |
| recombinant IL-1α: recombinant cytokine used to stimulate fibroblasts | – | higher nitrite production by fibroblasts |

From patent publication US20230365673A1, “MEANS FOR REDUCING RADIO- AND CHEMOTHERAPY RESISTANCE AND ADVERSE EFFECTS” (JOHANN WOLFGANG GOETHE-UNIVERSITÄT FRANKFURT AM MAIN, priority 2020, published 2023)
